According to EP3418270A1, “NOVEL BIPHENYLSULFOXIMINES AS ALLOSTERIC MODULATORS OF THE DOPAMINE D1 RECEPTOR” (Universidad Complutense De Madrid, priority 2017, dated 2018):
Blank lines part the entries; values can stand above or below the compound they belong to.

Legend:
human D1 receptors = biological target: T1, human D1 receptors (Homo sapiens, UniProt P21728); experiment: Allosteric modulation of human dopamine D1 receptors: dopamine-induced cAMP production (HTRF) in SK-N-MC cells; format: cell-based; details: for Potentiation (%) at 10 µM / Potentiation (%) at 5 µM: potentiation of dopamine Emax; for Potentiation (%) at 10 µM: compound at 10 µM; for Potentiation (%) at 5 µM: compound at 5 µM (values marked *)
T1 construct: endogenously expressed human D1 receptors in SK-N-MC cell line; host or cells: SK-N-MC human neuroblastoma cells
Procedure: Functional studies at human D1 receptors were carried out in endogenously expressed human D1 receptors in SK-N-MC cell line (ATCC). SK-N-MC cells were thawed and seeded into a black 96-well plate (1×10^4 cells/well) in Optimem containing 500 µM IBMX.
(§1) Cells were treated with the test compounds for 15 min at 25°C and dopamine was added to the corresponding wells and incubated for additional 15 min at 25°C. Treated cells were lysed and the cAMP concentration was measured by homogeneous time-resolved fluorescence energy transfer (HTRF; Cisbio Kit). HTRF was read in a Tecan M1000 Genius Pro reader (λexcitation = 320 nm, λemission = 620 nm and 665 nm, 30 flashes).
(§2) Data were normalized to dopamine maximum effect and fitted to a 4-parameter logistic equation Prism v2.1 (GraphPad Inc).
If the observed effect is dose-dependent, compounds were then tested in the cAMP assay, this time maintaining a fixed concentration of dopamine (=EC70) while increasing the concentration of the compound, and the potentiation of the dopamine effect was measured.

human D3 receptors = human D3 receptors (Homo sapiens, UniProt P35462); experiment: Functional assay at human D3 receptors: PatHunter Beta-arrestin express GPCR assay; format: cell-based; details: beta-arrestin translocation, Figure 4
Procedure: (§3) Functional studies at both human D3 and D4 receptors receptors were carried by employing a PatHunter Beta-arrestin express GPCR assay kit from DiscoverX. Cells were plated maintained for 48 h at 37°C in a 5% CO2 atmosphere in cell plating reagen t provided in the kit.
(§4) Cells were treated with the test compounds for 30 min at 37°C and dopamine was added to the corresponding wells and incubated for additional 90 min at 37°C. Cells were then treated with the working detection solution provided with the kit for 1 h and beta-arrestin translocation was measured by luminescence detection (integration time=500 ms) in a Tecan M1000 Genius Pro reader.
as §2

[1] = biological target: T2, human dopamine D1 receptor (Homo sapiens, UniProt P21728); experiment: Agonist effect at human dopamine D1 receptors: cAMP (HTRF) in SK-N-MC cells without dopamine; format: cell-based; set-up: endogenously expressed human D1 receptors in SK-N-MC cell line; host or cells: SK-N-MC human neuroblastoma cells; details: in the absence of dopamine, cAMP (Figure 2)
Procedure: as §1, with “SK-N-MC cells seeded into a black 96-well plate (1×10^4 cells/well) in Optimem containing 500 µM IBMX” for “Cells”, “for” for “for 15 min at 25°C and dopamine was added to the corresponding wells and incubated for additional”
as §2

[2] = biological target: T3, recombinant human D2 receptors (Homo sapiens, UniProt P14416); experiment: Functional assay at human D2 receptors: cAMP (HTRF), forskolin-stimulated CHO cells; format: cell-based; details: Figure 3
T3 construct: expressed in transfected cells; host or cells: CHO cell line, stably transfected in-house
Procedure: Functional studies at D2 receptors were carried out in recombinant human D2 receptors stably transfected in-house in a CHO cell line. Cells were thawed and seeded into a 96-well plate (5×10^3 cells/well) in Optimem containing 500 µM IBMX.
as §1, with “for 5” for “for 15”, “at 37°C” for “at 25°C”, “additional 10” for “additional 15”, “at 37°C. After this time cells were treated with 10 µM forskolin for 5 min at 37°C.” for “at 25°C.”
as §2

human D5 receptors = human D5 receptors (Homo sapiens, UniProt P21918); experiment: Functional assay at human D5 receptors: cAMP Hunter express DRD5 assay; format: cell-based; details: cAMP formation, Figure 6
Procedure: Functional studies at human D5 receptors receptors were carried by employing a cAMP Hunter express DRD5 assay kit from DiscoverX. Cells were plated maintained for 24 h at 37°C in a 5% CO2 atmosphere in cell plating reagent provided in the kit.
as §4, with “15” for “30”, “30” for “90”, “cAMP” for “working”, “then cAMP solution A was added to each well and incubated for 3 h at RT. cAMP formation” for “beta-arrestin translocation”
as §2

[3] = biological target: T2, human dopamine D1 receptor; experiment: Radioligand binding assay at human D1 receptors ([3H]SCH23390 displacement, membranes); set-up: purchased Perkin Elmer; details: 0.7 nM [3H]SCH23390, orthosteric site
Procedure: Assays were carried out by using plasma membranes (12 µg/well) expressing human dopamine D1 receptor (Perkin Elmer). Membranes were incubated in a Multiscreen FC 96-well plate (Millipore) with 0.7 nM [^3H]SCH23390 (Perkin Elmer) and increasing amounts of the test compound in assay buffer (50 mM Tris-HCl, 5 mM MgCl2; pH=7.4) for 1 h at 27°C. After this time the well content was filtered through a Millipore manifold and membranes washed 4 times with assay buffer. Plate was dried and radioactivity was measured in a Microbeta Trilux liquid scintillation reader (Perkin-Elmer). Non-specific binding was determined in the presence of 1 µM (+)-butaclamol.
Data were normalized to percentage of specific binding and fitted to a 4-parameter logistic equation with Prism v2.1 (GraphPad Inc).

human D4 receptors = biological target: T4, human D4 receptors (Homo sapiens, UniProt P21917); experiment: Functional assay at human D4 receptors: PatHunter Beta-arrestin express GPCR assay; format: cell-based; details: beta-arrestin translocation, Figure 5
T4 sequence (P21917 1-419): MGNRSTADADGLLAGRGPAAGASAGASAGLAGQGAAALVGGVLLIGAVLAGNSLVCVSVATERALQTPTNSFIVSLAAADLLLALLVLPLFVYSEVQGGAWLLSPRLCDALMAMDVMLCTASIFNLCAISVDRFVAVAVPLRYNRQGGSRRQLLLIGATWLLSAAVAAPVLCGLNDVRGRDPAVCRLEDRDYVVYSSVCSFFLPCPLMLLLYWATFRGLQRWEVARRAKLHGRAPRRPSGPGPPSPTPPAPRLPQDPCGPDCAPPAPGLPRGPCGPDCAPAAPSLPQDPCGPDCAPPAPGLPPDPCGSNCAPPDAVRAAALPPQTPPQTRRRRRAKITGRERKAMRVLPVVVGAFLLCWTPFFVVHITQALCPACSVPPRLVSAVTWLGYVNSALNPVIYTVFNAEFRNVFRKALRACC
Procedure: as §3, §4, §2

T3 sequence (P14416 whole entry): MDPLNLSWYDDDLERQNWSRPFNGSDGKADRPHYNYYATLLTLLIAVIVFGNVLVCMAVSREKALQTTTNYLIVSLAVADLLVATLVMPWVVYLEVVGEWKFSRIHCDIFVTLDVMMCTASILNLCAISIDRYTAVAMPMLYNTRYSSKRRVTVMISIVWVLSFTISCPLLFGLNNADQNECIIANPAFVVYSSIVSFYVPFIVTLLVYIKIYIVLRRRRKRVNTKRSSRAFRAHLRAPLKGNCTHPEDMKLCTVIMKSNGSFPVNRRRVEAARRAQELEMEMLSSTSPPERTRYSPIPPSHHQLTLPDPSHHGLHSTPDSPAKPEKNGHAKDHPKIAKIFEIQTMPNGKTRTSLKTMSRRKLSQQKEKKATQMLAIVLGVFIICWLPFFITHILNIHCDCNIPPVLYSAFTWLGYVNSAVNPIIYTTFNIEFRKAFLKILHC
T2 sequence (P21728 whole entry): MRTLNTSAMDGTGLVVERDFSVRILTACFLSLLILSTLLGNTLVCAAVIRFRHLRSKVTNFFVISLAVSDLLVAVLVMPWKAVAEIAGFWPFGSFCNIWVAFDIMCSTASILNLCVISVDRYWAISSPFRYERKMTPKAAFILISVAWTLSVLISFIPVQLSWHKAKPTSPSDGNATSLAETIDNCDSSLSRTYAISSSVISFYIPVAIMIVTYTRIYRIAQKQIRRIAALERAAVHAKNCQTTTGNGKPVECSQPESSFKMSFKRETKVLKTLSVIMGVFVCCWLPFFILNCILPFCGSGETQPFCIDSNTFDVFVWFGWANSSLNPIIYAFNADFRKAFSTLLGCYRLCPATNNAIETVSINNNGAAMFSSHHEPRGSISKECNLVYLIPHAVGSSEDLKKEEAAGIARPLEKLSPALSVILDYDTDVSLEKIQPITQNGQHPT
T1 sequence (P21728 whole entry): as above
Sequence of human D3 receptors (P35462 whole entry): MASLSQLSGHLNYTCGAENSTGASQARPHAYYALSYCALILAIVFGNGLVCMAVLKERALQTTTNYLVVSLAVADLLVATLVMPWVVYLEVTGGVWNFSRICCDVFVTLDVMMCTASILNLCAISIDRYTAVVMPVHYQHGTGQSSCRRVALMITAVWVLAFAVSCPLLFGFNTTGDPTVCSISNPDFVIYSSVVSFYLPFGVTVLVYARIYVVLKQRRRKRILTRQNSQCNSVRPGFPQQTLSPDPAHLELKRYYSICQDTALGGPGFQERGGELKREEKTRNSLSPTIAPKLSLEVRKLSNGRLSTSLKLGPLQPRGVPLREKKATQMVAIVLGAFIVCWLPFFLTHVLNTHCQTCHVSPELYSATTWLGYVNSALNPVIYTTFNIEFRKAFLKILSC
Sequence of human D5 receptors (P21918 whole entry): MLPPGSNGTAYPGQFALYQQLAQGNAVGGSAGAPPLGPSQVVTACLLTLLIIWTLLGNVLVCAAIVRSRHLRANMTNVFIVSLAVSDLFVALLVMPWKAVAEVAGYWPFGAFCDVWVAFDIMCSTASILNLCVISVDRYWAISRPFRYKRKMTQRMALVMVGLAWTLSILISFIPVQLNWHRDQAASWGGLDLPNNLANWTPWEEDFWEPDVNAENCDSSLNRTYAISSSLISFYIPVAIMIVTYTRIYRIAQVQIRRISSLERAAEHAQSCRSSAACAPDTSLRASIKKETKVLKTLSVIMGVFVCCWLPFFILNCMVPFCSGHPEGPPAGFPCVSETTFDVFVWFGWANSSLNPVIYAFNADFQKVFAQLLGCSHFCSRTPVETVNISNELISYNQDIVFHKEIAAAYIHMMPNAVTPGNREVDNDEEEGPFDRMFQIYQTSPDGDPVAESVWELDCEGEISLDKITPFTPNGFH

Structure (SMILES): CS(=N)(=O)c1ccc(-c2ccccc2OC(F)(F)F)cc1Cl (stereo not drawn) [If, 3'-Chloro-4'-(S-methylsulfonimidoyl)-2-(trifluoromethoxy)biphenyl]
Potentiation (%) at 10 µM (human D1 receptors): 30%

Structure (SMILES): CS(=N)(=O)c1ccc(-c2ccccc2OC(F)F)cc1Cl (stereo not drawn) [Id, 3'-Chloro-2-(difluoromethoxy)-4'-(S-methylsulfonimidoyl)biphenyl]
Potentiation (%) at 10 µM (human D1 receptors): 25%

Structure (SMILES): C[S@@](=N)(=O)c1ccc(-c2ccccc2OCF)cc1 [(R)-Ik, (R)-2-(Fluoromethoxy)-4'-(S-methylsulfonimidoyl)biphenyl]
functional subtype selectivity against D3 receptor (human D3 receptors): functional subtype selectivity
Potentiation (%) at 5 µM (human D1 receptors): 63%
intrinsic agonist activity [1]: no potentiation
functional subtype selectivity against dopamine D2 receptor [2]: functional subtype selectivity
functional subtype selectivity against D5 receptor (human D5 receptors): functional subtype selectivity
inhibition at 10 µM [3]: 12%
functional subtype selectivity against D4 receptor (human D4 receptors): functional subtype selectivity

Structure (SMILES): CCS(=N)(=O)c1ccc(-c2ccccc2OC(F)F)cc1 (stereo not drawn) [Ic, 2-(Difluoromethoxy)-4'-(S-ethylsulfonimidoyl)biphenyl]
Potentiation (%) at 10 µM (human D1 receptors): 39%

Structure (SMILES): C[S@](=N)(=O)c1ccc(-c2ccccc2OCF)cc1 [(S)-Ik, (S)-2-(Fluoromethoxy)-4'-(S-methylsulfonimidoyl)biphenyl]
functional subtype selectivity against D3 receptor (human D3 receptors): functional subtype selectivity
Potentiation (%) at 5 µM (human D1 receptors): 47%
intrinsic agonist activity [1]: no potentiation
functional subtype selectivity against dopamine D2 receptor [2]: functional subtype selectivity
functional subtype selectivity against D5 receptor (human D5 receptors): functional subtype selectivity
inhibition at 10 µM [3]: 6%
functional subtype selectivity against D4 receptor (human D4 receptors): functional subtype selectivity

Structure (SMILES): CN=S(C)(=O)c1ccc(-c2ccccc2OC(F)F)cc1 (stereo not drawn) [Ib, 2-(Difluoromethoxy)-4'-(N,S-dimethylsulfonimidoyl)biphenyl]
Potentiation (%) at 10 µM (human D1 receptors): 64%

Structure (SMILES): CS(=N)(=O)c1ccc(-c2ccccc2OC(F)F)cc1 (stereo not drawn) [Ia, 2-(Difluoromethoxy)-4'-(S-methylsulfonimidoyl)biphenyl]
Potentiation (%) at 10 µM (human D1 receptors): 27%

Structure (SMILES): CN=S(C)(=O)c1ccc(-c2ccccc2OC(F)F)cc1Cl (stereo not drawn) [Ie, 3'-Chloro-2-(difluoromethoxy)-4'-(N,S-dimethylsulfonimidoyl)biphenyl]
Potentiation (%) at 10 µM (human D1 receptors): 33%

Second part, the compound after the results:

Potentiation (%) at 10 µM (human D1 receptors): 54%
Structure (SMILES): CCS(=N)(=O)c1ccc(-c2ccccc2OCF)cc1 (stereo not drawn) [Ii, 2-(Fluoromethoxy)-4'-(S-ethylsulfonimidoyl)biphenyl]

functional subtype selectivity against D3 receptor (human D3 receptors): functional subtype selectivity
EC50 (human D1 receptors; potency in the presence of dopamine (fixed concentration = EC70)): 60 nM
Potentiation (%) at 5 µM (human D1 receptors): 35%
Potentiation (%) at 10 µM (human D1 receptors): 55%
intrinsic agonist activity [1]: no potentiation
functional subtype selectivity against dopamine D2 receptor [2]: functional subtype selectivity
functional subtype selectivity against D5 receptor (human D5 receptors): functional subtype selectivity
inhibition at 10 µM [3]: 36%
functional subtype selectivity against D4 receptor (human D4 receptors): functional subtype selectivity
Structure (SMILES): CS(=N)(=O)c1ccc(-c2ccccc2OCF)cc1 (racemic) [Ik, 2-(Fluoromethoxy)-4'-(S-methylsulfonimidoyl)biphenyl]

Potentiation (%) at 10 µM (human D1 receptors): 35%
Structure (SMILES): CN=S(C)(=O)c1ccc(-c2ccccc2OCF)cc1Cl (stereo not drawn) [Ij, 3'-Chloro-2-(fluoromethoxy)-4'-(N,S-dimethylsulfonimidoyl)biphenyl]

Potentiation (%) at 10 µM (human D1 receptors): 27%
Structure (SMILES): CN=S(C)(=O)c1ccc(-c2ccccc2OC(F)(F)F)cc1Cl (stereo not drawn) [Ig, 3'-Chloro-2-(trifluoromethoxy)-4'-(N,S-dimethylsulfonimidoyl)biphenyl]

Potentiation (%) at 10 µM (human D1 receptors): 30%
Structure (SMILES): CN=S(C)(=O)c1ccc(-c2ccccc2OCF)cc1 (stereo not drawn) [Ih, 4'-(N,S-Dimethylsulfonimidoyl)-2-(fluoromethoxy)biphenyl]
